Earlier results, collected in patent US20180318338A1, “METHODS AND COMPOSITIONS FOR THE PREVENTION OF SUICIDE, HOMICIDE AND SELF-HARMING BEHAVIORS” (THE MCLEAN HOSPITAL CORPORATION, priority 2015, published 2018).

Conditions: in vivo

SMILES: [Xe] [xenon]
- blood level of xenon: 100 to 200 nL xenon/mL blood
